Measurements reported in patent US20080286349A1, “SYSTEMS, DEVICES, AND METHODS FOR PASSIVE TRANSDERMAL DELIVERY OF ACTIVE AGENTS TO A BIOLOGICAL INTERFACE” (priority 2007, published 2008).
Counter-ions that a name gives are not always drawn.

Tests used:
[1] = Membrane potential measurement across skin in H-shaped Franz cell; ion mobility relative to chloride; type: physicochemical, mouse; settings: Cl− = 1
From the text: The electric potential difference shown here is between the outside and the inside of the skin. The “+/−” notation is opposite to that shown in Equation 12. […] These values have been used to make calculations.

[2] = Computed membrane potential and ion flux (Eq. 11 Goldman equation, Eq. 12); settings: relative to Cl−
From the text: Further, it is necessary to linearly approximate the concentration gradient or the electric potential gradient to solve equation 9. […] The potential difference across the skin has been considered for a single component system. […] Thus, a film potential can be calculated provided that the ion mobility (omega) and concentration (c) within the skin are known. The ion transport speed can then be found from the calculated film potential.

[3] = Delivery of aqueous drug solutions through skin in Franz cell (amount over time, flux); settings: for experimental Flux J: 1.0% Diclofenac
From the text: An H-shaped Franz cell (FIG. 7) was used to evaluate the theory described herein. As shown, the Franz cell 28 includes a donor chamber 30a and a receiver chamber 30b. The donor chamber 30a contains an ionic active agent, which permeates through a membrane 32 to reach the receiver chamber 30b. A working electrode 34a was inserted in the donor chamber 30a, while a counter electrode 34b (i.e., reference electrode) was inserted in the receptor chamber 30b. It is possible to measure the electrical potential difference induced by the ionic diffusion/permeation and the concentration gradient thus established. […]

[4] = Example 1: Procaterol HCl solutions, Franz cell at 32° C.; type: in vitro ADME, mouse; design: unit not given here
Protocol: Typically, 17 ml of phosphate buffered saline (PBS, sold by Wako Pure Chemical Industries) was injected into the receptor cell, and a 10 mm stirring bar was used to agitate the solution during the test. The Franz cell was placed in an incubator (made by ESPEC, model LH-113) with the temperature set to 32° C. and the humidity set to 70%. Samples were typically extracted from the cell at predetermined times using a 200 μl Gilson Pipetman. 200 μl of PBS was then added to the cell after each sampling operation.
For measuring the active agent (e.g., Procaterol cation) permeated, a standard solution with known concentration can be prepared and compared with the concentration measured. Using Procaterol HCl as an example, 50 mg of Procaterol HCl (97.25% anhydrous) was accurately measured out, and then added to water to form 50 ml of solution (“Procaterol concentrate liquid”). The standard concentrate was then diluted (“Procaterol standard solution”) and used as a mobile phase for high performance (or pressure) liquid chromatography (HPLC). The Procaterol concentrate liquid was sealed in a light shielding bottle and stored in a refrigerator. 10 μl of each test sample and 10 μl of the standard solution was measured using HPLC, and Procaterol peak areas At (test samples) and As (standard solution) were determined for each sample. Procaterol HCl masses were then found for each test sample using the following equation: […]
In Example 1, before testing the delivery device 10, sixteen tests were performed at four different agent concentrations (four tests (#1, #2, #3, and #4) for each concentration of active agent) using Procaterol HCl in order to investigate the transport of Procaterol cation into and through skin along a concentration gradient. A Franz cell was used at 32° C. using hairless mouse skin as a permeable membrane. 720 corresponds to the average delivery of a 5 wt % Procaterol-HCl concentration, 722 corresponds to the average delivery of a 2.5 wt % Procaterol-HCl concentration, 724 corresponds to the average delivery of a 1 wt % Procaterol-HCl concentration, and 726 corresponds to the average delivery of a 0.5 wt % Procaterol-HCl concentration. […] It can be seen that the amount of Procaterol delivered through the skin increases over time. Further, it can also be seen that the amount of Procaterol delivered increases with increased Procaterol concentration. To deliver a medically effective amount of Procaterol through the skin, the concentration of the Procaterol solution must be equal to or greater than a certain threshold concentration. A sufficient amount of Procaterol dissolved in water was used in this experiment, thus leading to a rather large Procaterol delivery speed. It is therefore possible to deliver Procaterol through the skin, provided that the solution exists in proximity to the surface of the skin.

Which results are given for O=C1O[C@H]([C@@H](O)CO)C(O)=C1O[C@H]1O[C@H](CO)[C@@H](O)[C@H](O)[C@H]1O [AA2G, L-Ascorbic acid 2-Glucoside]?
Mobility of ion (AA2G− compared to chloride ions) ([1]; AA2G 300 mM (0.296 mol dm^−3 donor)): 0.83; Mobility ratio w ([2]; AA2G 0.000059 mol cm^3): 0.1; Mobility ratio w ([2]; AA2G 0.000148 mol cm^3): 0.4

What does the source list for O=C([O-])Cc1ccccc1Nc1c(Cl)cccc1Cl.[Na+] [Diclofenac, monosodium 2-(2-(2,6-dichlorophenylamino)phenyl)acetate]?
Mobility of ion (Diclofenac anion compared to chloride ions) ([1]; 0.032 mol dm^−3 sodium Diclofenac donor): 4.6; Mobility ratio w ([2]; Diclofenac 0.0000016 mol cm^−3): 4.6; Mobility ratio w ([2]; Diclofenac 0.0000032 mol cm^−3 (last line)): 4.6; Mobility ratio w ([2]; Diclofenac 0.0000032 mol cm^−3 (third line)): 4.6; Mobility ratio w ([2]; Diclofenac 0.000016 mol cm^−3): 4.6; Flux ([3]; 0.003 M sodium Diclofenac): 1.30 μg h^−1 cm^−2; Amount of Diclofenac delivered ([3]; 0.003 M, time 0 hr): 0.0; Amount of Diclofenac delivered ([3]; 0.003 M, time 1 hr): 0.0; Amount of Diclofenac delivered ([3]; 0.003 M, time 3 hr): 2.0; Amount of Diclofenac delivered ([3]; 0.003 M, time 5 hr): 5.6; Amount of Diclofenac delivered ([3]; 0.003 M, time 24 hr): 31.1; Flux ([3]; 0.016 M sodium Diclofenac): 2.21 μg h^−1 cm^−2; Amount of Diclofenac delivered ([3]; 0.016 M, time 0 hr): 0.0; Amount of Diclofenac delivered ([3]; 0.016 M, time 1 hr): 0.0; Amount of Diclofenac delivered ([3]; 0.016 M, time 3 hr): 3.6; Amount of Diclofenac delivered ([3]; 0.016 M, time 5 hr): 9.8; Amount of Diclofenac delivered ([3]; 0.016 M, time 24 hr): 53.1; Flux ([3]; 0.031 M sodium Diclofenac): 4.62 μg h^−1 cm^−2; Amount of Diclofenac delivered ([3]; 0.031 M, time 0 hr): 0.0; Amount of Diclofenac delivered ([3]; 0.031 M, time 1 hr): 0.3; Amount of Diclofenac delivered ([3]; 0.031 M, time 3 hr): 5.4; Amount of Diclofenac delivered ([3]; 0.031 M, time 5 hr): 12.1; Amount of Diclofenac delivered ([3]; 0.031 M, time 24 hr): 110.9; experimental Flux J ([3]; KCl conc 0 %): 4.3 μg h^−1 cm^−2; experimental Flux J ([3]; KCl conc 0.1 %): 6.2 μg h^−1 cm^−2; experimental Flux J ([3]; KCl conc 0.5 %): 7.0 μg h^−1 cm^−2

For CCC(NC(C)C)C(O)c1ccc(O)c2[nH]c(=O)ccc12 (stereo not shown) [Procaterol HCl, 8-hydroxy-5-[1-hydroxy-2-[(1-methylethyl)amino]butyl]-2(1H)-quinolinone], which “Mobility of ion (Procaterol cation with respect to chloride ions)” value ([1]; […] Procaterol HCl donor) is on record?
The value was 0.13.

What about the Mobility ratio w ([2]; Procaterol 0.000015 mol cm^−3) of the same compound?
The Mobility ratio w was 0.13.

What about the Mobility ratio w ([2]; Procaterol 0.00003 mol cm^−3) of the same compound?
Its Mobility ratio w is 0.13.

And the Mobility ratio w ([2]; Procaterol 0.00006 mol cm^−3)?
The Mobility ratio w was 0.13.

What about the Flux ([3]; 0.015 M aqueous Procaterol) of the same compound?
The Flux was 0 mg h^−1 cm^−2.

What about the “Amount of aqueous Procaterol delivered” value ([3]; 0.015 M, time 0 hr) of the same compound?
Its value is 0.

And the “Amount of aqueous Procaterol delivered” value ([3]; 0.015 M, time 2 hr)?
Its value is 0.

What about the “Amount of aqueous Procaterol delivered” value ([3]; 0.015 M, time 3 hr) of the same compound?
The value was 0.

And the “Amount of aqueous Procaterol delivered” value ([3]; 0.015 M, time 5 hr)?
The value was 0.

And the Flux ([3]; 0.03 M aqueous Procaterol)?
The Flux was 0.024 mg h^−1 cm^−2.

And the “Amount of aqueous Procaterol delivered” value ([3]; 0.03 M, time 0 hr)?
The value was 0.

What about the “Amount of aqueous Procaterol delivered” value ([3]; 0.03 M, time 2 hr) of the same compound?
Its value is 0.

And the “Amount of aqueous Procaterol delivered” value ([3]; 0.03 M, time 3 hr)?
Its value is 0.

What about the “Amount of aqueous Procaterol delivered” value ([3]; 0.03 M, time 5 hr) of the same compound?
Its value is 0.12.

What about the Flux ([3]; 0.06 M aqueous Procaterol) of the same compound?
Its Flux is 0.082 mg h^−1 cm^−2.

What about the “Amount of aqueous Procaterol delivered” value ([3]; 0.06 M, time 0 hr) of the same compound?
The value was 0.

And the “Amount of aqueous Procaterol delivered” value ([3]; 0.06 M, time 2 hr)?
Its value is 0.13.

What about the “Amount of aqueous Procaterol delivered” value ([3]; 0.06 M, time 3 hr) of the same compound?
The value was 0.22.

What about the “Amount of aqueous Procaterol delivered” value ([3]; 0.06 M, time 5 hr) of the same compound?
The value was 0.41.

And the Flux ([3]; […] aqueous Procaterol)?
Its Flux is 0.84 mg h^−1 cm^−2.

And the “Amount of aqueous Procaterol delivered” value ([3]; […], time 0 hr)?
Its value is 0.

What about the “Amount of aqueous Procaterol delivered” value ([3]; […], time 2 hr) of the same compound?
Its value is 1.53.

And the “Amount of aqueous Procaterol delivered” value ([3]; […], time 3 hr)?
Its value is 2.47.

And the “Amount of aqueous Procaterol delivered” value ([3]; […], time 5 hr)?
The value was 4.20.

And the “Total transmission amount, Ave.” value ([4]; Test ID 720 (5.0%), 0 hrs.)?
The value was 0.0.

What about the “Total transmission amount, single samples #1-#4” value ([4]; Test ID 720 (5.0%), 0 hrs.) of the same compound?
The value was 0.0.

And the “Total transmission amount, Ave.” value ([4]; Test ID 720 (5.0%), 1 hr.)?
Its value is 0.7.

And the “Total transmission amount, Ave.” value ([4]; Test ID 720 (5.0%), 3 hrs.)?
The value was 5.3.

What about the “Total transmission amount, Ave.” value ([4]; Test ID 720 (5.0%), 5 hrs.) of the same compound?
Its value is 10.4.

And the “Total transmission amount, Ave.” value ([4]; Test ID 720 (5.0%), 8 hrs.)?
Its value is 16.3.

What about the “Total transmission amount, Ave.” value ([4]; Test ID 722 (2.5%), 0 hrs.) of the same compound?
Its value is 0.0.

What about the “Total transmission amount, single samples #1-#4” value ([4]; Test ID 722 (2.5%), 0 hrs.) of the same compound?
Its value is 0.0.

And the “Total transmission amount, Ave.” value ([4]; Test ID 722 (2.5%), 1 hr.)?
Its value is 0.4.

What about the “Total transmission amount, Ave.” value ([4]; Test ID 722 (2.5%), 3 hrs.) of the same compound?
Its value is 1.7.

What about the “Total transmission amount, Ave.” value ([4]; Test ID 722 (2.5%), 5 hrs.) of the same compound?
Its value is 2.8.

What about the “Total transmission amount, Ave.” value ([4]; Test ID 722 (2.5%), 8 hrs.) of the same compound?
The value was 4.1.

And the “Total transmission amount, Ave.” value ([4]; Test ID 724 (1.0%), 0 hrs.)?
Its value is 0.0.

And the “Total transmission amount, single samples #1-#4” value ([4]; Test ID 724 (1.0%), 0 hrs.)?
The value was 0.0.

What about the “Total transmission amount, Ave.” value ([4]; Test ID 724 (1.0%), 1 hr.) of the same compound?
The value was 0.0.

And the “Total transmission amount, single samples #1-#4” value ([4]; Test ID 724 (1.0%), 1 hr.)?
The value was 0.0.

What about the “Total transmission amount, Ave.” value ([4]; Test ID 724 (1.0%), 3 hrs.) of the same compound?
The value was 0.2.

And the “Total transmission amount, Ave.” value ([4]; Test ID 724 (1.0%), 5 hrs.)?
The value was 0.4.

What about the “Total transmission amount, Ave.” value ([4]; Test ID 724 (1.0%), 8 hrs.) of the same compound?
Its value is 0.7.

What about the “Total transmission amount, Ave.” value ([4]; Test ID 726 (0.5%), 0 hrs.) of the same compound?
The value was 0.0.

What about the “Total transmission amount, single samples #1-#4” value ([4]; Test ID 726 (0.5%), 0 hrs.) of the same compound?
The value was 0.0.

And the “Total transmission amount, Ave.” value ([4]; Test ID 726 (0.5%), 1 hr.)?
The value was 0.0.

And the “Total transmission amount, single samples #1-#4” value ([4]; Test ID 726 (0.5%), 1 hr.)?
The value was 0.0.

And the “Total transmission amount, Ave.” value ([4]; Test ID 726 (0.5%), 3 hrs.)?
The value was 0.2.

And the “Total transmission amount, Ave.” value ([4]; Test ID 726 (0.5%), 5 hrs.)?
Its value is 0.5.

What about the “Total transmission amount, Ave.” value ([4]; Test ID 726 (0.5%), 8 hrs.) of the same compound?
The value was 0.8.
